From the NIST ThermoML archive (doi:10.1016/j.jct.2012.08.010)

Assay: refractive index (Na D-line) (dimensionless); φn = volume fraction of the nth substance listed
Conditions: 101 kPa, Liquid, Standard Abbe refractometry

C=C[Si]1(C)O[Si](C)(C=C)O[Si](C)(C=C)O[Si](C)(C=C)O1 (stereo not given) [2,4,6,8-tetramethyl-2,4,6,8-tetravinylcycloterasiloxane] + Cc1cccc(C)c1
Conditions	refractive index
288.15 K, φ1 = 0.1301	1.4916
288.15 K, φ1 = 0.2524	1.48392
288.15 K, φ1 = 0.3347	1.47877
288.15 K, φ1 = 0.4159	1.47367
288.15 K, φ1 = 0.4865	1.46917
288.15 K, φ1 = 0.5517	1.46505
288.15 K, φ1 = 0.5985	1.46211
288.15 K, φ1 = 0.653	1.45885
288.15 K, φ1 = 0.6984	1.45591
288.15 K, φ1 = 0.7389	1.45344
288.15 K, φ1 = 0.776	1.45106
288.15 K, φ1 = 0.8087	1.44894
288.15 K, φ1 = 0.8405	1.44691
288.15 K, φ1 = 0.866	1.44524
288.15 K, φ1 = 0.8941	1.44346
288.15 K, φ1 = 0.9183	1.44189
288.15 K, φ1 = 0.941	1.44046
288.15 K, φ1 = 0.9804	1.43797
288.15 K, φ1 = 1	1.43674
298.15 K, φ1 = 0.1302	1.48641
298.15 K, φ1 = 0.2525	1.4788
298.15 K, φ1 = 0.3347	1.47372
298.15 K, φ1 = 0.416	1.46865
298.15 K, φ1 = 0.4866	1.46426
298.15 K, φ1 = 0.5518	1.46017
298.15 K, φ1 = 0.5986	1.45726
298.15 K, φ1 = 0.6531	1.454
298.15 K, φ1 = 0.6984	1.45105
298.15 K, φ1 = 0.7389	1.44845
298.15 K, φ1 = 0.7761	1.4461
298.15 K, φ1 = 0.8087	1.44408
298.15 K, φ1 = 0.8405	1.44212
298.15 K, φ1 = 0.866	1.44048
298.15 K, φ1 = 0.8941	1.4387
298.15 K, φ1 = 0.9183	1.43717
298.15 K, φ1 = 0.941	1.43574
298.15 K, φ1 = 0.9804	1.43324
298.15 K, φ1 = 1	1.43202
308.15 K, φ1 = 0.1302	1.48109
308.15 K, φ1 = 0.2525	1.47359
308.15 K, φ1 = 0.3348	1.46856
308.15 K, φ1 = 0.4161	1.46354
308.15 K, φ1 = 0.4867	1.45917
308.15 K, φ1 = 0.5519	1.45513
308.15 K, φ1 = 0.5987	1.45223
308.15 K, φ1 = 0.6532	1.44903
308.15 K, φ1 = 0.6985	1.4461
308.15 K, φ1 = 0.739	1.44355
308.15 K, φ1 = 0.7761	1.44125
308.15 K, φ1 = 0.8088	1.43919
308.15 K, φ1 = 0.8406	1.43727
308.15 K, φ1 = 0.8661	1.43566
308.15 K, φ1 = 0.8942	1.43391
308.15 K, φ1 = 0.9183	1.4324
308.15 K, φ1 = 0.941	1.43098
308.15 K, φ1 = 0.9804	1.4285
308.15 K, φ1 = 1	1.4273
318.15 K, φ1 = 0.1303	1.47582
318.15 K, φ1 = 0.2526	1.46841
318.15 K, φ1 = 0.3349	1.46342
318.15 K, φ1 = 0.4162	1.45843
318.15 K, φ1 = 0.4867	1.45413
318.15 K, φ1 = 0.5519	1.45015
318.15 K, φ1 = 0.5988	1.44727
318.15 K, φ1 = 0.6533	1.44383
318.15 K, φ1 = 0.6986	1.44117
318.15 K, φ1 = 0.7391	1.43865
318.15 K, φ1 = 0.7762	1.43639
318.15 K, φ1 = 0.8088	1.43434
318.15 K, φ1 = 0.8406	1.43244
318.15 K, φ1 = 0.8661	1.43085
318.15 K, φ1 = 0.8942	1.42911
318.15 K, φ1 = 0.9184	1.42763
318.15 K, φ1 = 0.9411	1.42622
318.15 K, φ1 = 0.9804	1.42377
318.15 K, φ1 = 1	1.42257
328.15 K, φ1 = 0.1303	1.47053
328.15 K, φ1 = 0.2526	1.46321
328.15 K, φ1 = 0.335	1.45825
328.15 K, φ1 = 0.4163	1.45333
328.15 K, φ1 = 0.4868	1.44908
328.15 K, φ1 = 0.552	1.44511
328.15 K, φ1 = 0.5988	1.44229
328.15 K, φ1 = 0.6533	1.43851
328.15 K, φ1 = 0.6986	1.43604
328.15 K, φ1 = 0.7391	1.43374
328.15 K, φ1 = 0.7762	1.43152
328.15 K, φ1 = 0.8089	1.42952
328.15 K, φ1 = 0.8407	1.42761
328.15 K, φ1 = 0.8661	1.42604
328.15 K, φ1 = 0.8942	1.42434
328.15 K, φ1 = 0.9184	1.42285
328.15 K, φ1 = 0.9411	1.42145
328.15 K, φ1 = 0.9804	1.41904
328.15 K, φ1 = 1	1.41785

C=C[Si]1(C)O[Si](C)(C=C)O[Si](C)(C=C)O[Si](C)(C=C)O1 (stereo not given) [2,4,6,8-tetramethyl-2,4,6,8-tetravinylcycloterasiloxane] + Cc1ccccc1C
Conditions	refractive index
288.15 K, φ1 = 0.1323	1.49868
288.15 K, φ1 = 0.2522	1.49036
288.15 K, φ1 = 0.3383	1.4844
288.15 K, φ1 = 0.4201	1.47866
288.15 K, φ1 = 0.4909	1.47364
288.15 K, φ1 = 0.5559	1.46898
288.15 K, φ1 = 0.6028	1.4657
288.15 K, φ1 = 0.6571	1.46179
288.15 K, φ1 = 0.7017	1.45858
288.15 K, φ1 = 0.7422	1.4556
288.15 K, φ1 = 0.7787	1.45298
288.15 K, φ1 = 0.8113	1.45065
288.15 K, φ1 = 0.842	1.44839
288.15 K, φ1 = 0.8679	1.44648
288.15 K, φ1 = 0.8958	1.44445
288.15 K, φ1 = 0.9198	1.44269
288.15 K, φ1 = 0.942	1.44102
288.15 K, φ1 = 0.9794	1.43827
288.15 K, φ1 = 1	1.43674
298.15 K, φ1 = 0.1324	1.49359
298.15 K, φ1 = 0.2524	1.48535
298.15 K, φ1 = 0.3385	1.47939
298.15 K, φ1 = 0.4203	1.4737
298.15 K, φ1 = 0.4911	1.46872
298.15 K, φ1 = 0.5561	1.46412
298.15 K, φ1 = 0.603	1.46081
298.15 K, φ1 = 0.6573	1.45693
298.15 K, φ1 = 0.7019	1.45375
298.15 K, φ1 = 0.7423	1.45081
298.15 K, φ1 = 0.7788	1.44819
298.15 K, φ1 = 0.8114	1.44585
298.15 K, φ1 = 0.8421	1.4436
298.15 K, φ1 = 0.868	1.44172
298.15 K, φ1 = 0.8958	1.43977
298.15 K, φ1 = 0.9199	1.43795
298.15 K, φ1 = 0.9421	1.4363
298.15 K, φ1 = 0.9794	1.43354
298.15 K, φ1 = 1	1.43202
308.15 K, φ1 = 0.1325	1.48836
308.15 K, φ1 = 0.2526	1.48017
308.15 K, φ1 = 0.3387	1.47425
308.15 K, φ1 = 0.4205	1.46859
308.15 K, φ1 = 0.4913	1.46366
308.15 K, φ1 = 0.5563	1.45909
308.15 K, φ1 = 0.6032	1.45581
308.15 K, φ1 = 0.6575	1.45196
308.15 K, φ1 = 0.7021	1.44881
308.15 K, φ1 = 0.7425	1.4459
308.15 K, φ1 = 0.779	1.44332
308.15 K, φ1 = 0.8116	1.441
308.15 K, φ1 = 0.8422	1.43878
308.15 K, φ1 = 0.8681	1.43691
308.15 K, φ1 = 0.8959	1.43489
308.15 K, φ1 = 0.9199	1.43317
308.15 K, φ1 = 0.9421	1.43154
308.15 K, φ1 = 0.9794	1.42881
308.15 K, φ1 = 1	1.4273
318.15 K, φ1 = 0.1326	1.48315
318.15 K, φ1 = 0.2527	1.47503
318.15 K, φ1 = 0.3389	1.46915
318.15 K, φ1 = 0.4207	1.46354
318.15 K, φ1 = 0.4915	1.45862
318.15 K, φ1 = 0.5565	1.45412
318.15 K, φ1 = 0.6034	1.45086
318.15 K, φ1 = 0.6577	1.44704
318.15 K, φ1 = 0.7022	1.44393
318.15 K, φ1 = 0.7426	1.44105
318.15 K, φ1 = 0.7791	1.43846
318.15 K, φ1 = 0.8117	1.4362
318.15 K, φ1 = 0.8423	1.43396
318.15 K, φ1 = 0.8682	1.43215
318.15 K, φ1 = 0.896	1.43012
318.15 K, φ1 = 0.92	1.4284
318.15 K, φ1 = 0.9421	1.42678
318.15 K, φ1 = 0.9794	1.42407
318.15 K, φ1 = 1	1.42257
328.15 K, φ1 = 0.1326	1.4779
328.15 K, φ1 = 0.2528	1.46957
328.15 K, φ1 = 0.339	1.46397
328.15 K, φ1 = 0.4208	1.45836
328.15 K, φ1 = 0.4916	1.45349
328.15 K, φ1 = 0.5567	1.44897
328.15 K, φ1 = 0.6035	1.44567
328.15 K, φ1 = 0.6578	1.44199
328.15 K, φ1 = 0.7023	1.43887
328.15 K, φ1 = 0.7427	1.43597
328.15 K, φ1 = 0.7792	1.43343
328.15 K, φ1 = 0.8118	1.43123
328.15 K, φ1 = 0.8423	1.42902
328.15 K, φ1 = 0.8683	1.42718
328.15 K, φ1 = 0.896	1.42526
328.15 K, φ1 = 0.92	1.42355
328.15 K, φ1 = 0.9422	1.42195
328.15 K, φ1 = 0.9794	1.41933
328.15 K, φ1 = 1	1.41785
